Experimental findings from paper PMC5577610, “Nine New Triterpene Glycosides, Magnumosides A1–A4, B1, B2, C1, C2 and C4, from the Vietnamese Sea Cucumber Neothyonidium (=Massinium) magnum: Structures and Activities against Tumor Cells Independently and in Synergy with Radioactive Irradiation” (Marine Drugs, 2017) are described below.

Where a name gives a salt, the structure may show the parent alone.

Holding throughout (type): cell-based
In data set [1] the test system is human colorectal adenocarcinoma DLD-1 cells. As to the kind of experiment: Cytotoxicity against DLD-1 cells (MTS assay). The note with it: for IC50: Homo sapiens, DLD-1, read-out: IC50 (50% reduction in cell viability), DLD-1 cells, 24 h, 0–100 µM. The method, then: (§1) Human colorectal adenocarcinoma cells DLD-1 were cultured in RPMI-1640 medium. Culture media was supplemented with 10% fetal bovine serum (FBS) and penicillin—streptomycin solution. Cells were maintained in a sterile environment and kept in an incubator at 5% CO2 and 37 °C to promote growth. DLD-1 cells were sub-cultured every 3–4 days by their rinsing with phosphate buffered saline (PBS), adding trypsin to detach the cells from the tissue culture flask, and transferring 10–20% of the harvested cells to a new flask containing fresh growth media.
DLD-1 cells (1.0 × 10^4/well) were seeded in 96-well plates for 24 h at 37 °C in 5% CO2 incubator. The cells were treated with the compounds 1–9 at concentrations range from 0 to 100 µM for additional 24 h. Subsequently, cells were incubated with 15 µL MTS reagent for 3 h, and the absorbance of each well was measured at 490/630 nm using microplate reader “Power Wave XS” (Bio Tek, Winooski, VT, USA). All the experiments were repeated three times, and the mean absorbance values were calculated. The results are expressed as the percentage of inhibition that produced a reduction in absorbance by compound’s treatment compared to the non-treated cells (control).
Background: Formazan colour is commonly taken as a measure of viable cells.

Data set [2] can be described thus: Cytotoxic activity (MTT) against mouse spleenocytes. The note with it: CD-1, mouse. The procedure: (§2) The spleenocytes from CD-1 line mice were used. The spleen was isolated from mice and homogenized. The spleenocytes were washed thrice and resuspended with RPMI-1640 medium contained gentamicine 8 μg/mL (Biolot, Saint Petersburg, Russia). The museum tetraploid strain of murine ascites Ehrlich carcinoma cells from the All-Russian cancer center RAMS (Moscow, Russia) was used. The cells of the ascites Ehrlich carcinoma were separated from ascites, which were collected on day 7 after inoculation in mouse CD-1 line. The cells were washed of ascites thrice and then resuspended in liquid media DMEM with L-Glutamine (Biolot, Saint Petersburg, Russia).
(§3) The solutions of tested substances in different concentrations (20 µL) and cell suspension (200 µL) were added in wells of 96-well plate and incubated over night at 37 °C and 5% CO2. After incubation the cells were sedimented by centrifugation, 200 µL of medium from each well were collected and 100 µL of pure medium were added. Then 10 µL of MTT solution […] (Sigma, St. Louis, MO, USA) were added in each well. Plate was incubated 4 h, after that 100 µL SDS-HCl were added to each well and plate was incubated at 37 °C 4–18 h. Optical density was measured at 570 nm and 630–690 nm. The activity of the substances was calculated as the ratio of the dead cells to general cells amount (ED50). Typicoside A1 [28] and cucumarioside A2-2 [11] were used as positive controls.

In a further data set the test system is mouse erythrocytes. The note with it: for Hemolytic action (in words): mouse erythrocytes. The method, then:
The erythrocytes were washed thrice with 0.9% NaCl, centrifuged (450 g) on a centrifuge […] (Heraeus, Hanau, Germany) for 5 min followed by re-suspending in phosphate-buffered saline (PBS), pH 7.2-7.4. […] ED50 was calculated using SigmaPlot 3.02 software (Jandel Scientific, San Rafael, CA, USA). […] The erythrocyte suspension in phosphate-buffered saline, pH 7.2-7.4 (PBS) with 20 μL of the solvent without a tested compound was used as negative control.

Data set [3] is described as follows: Cytotoxic activity (MTT) against the ascites form of mouse Ehrlich carcinoma cells. The note with it: mouse. The method, then: as §2, §3
In data set [4] the test system is human colorectal adenocarcinoma DLD-1 cells. In words: Soft agar assay, colony formation of DLD-1 cells. The note with it: 14 days; for Reduction of colonies size: 10 µM; for inhibition at 10 µM: Homo sapiens, DLD-1, 336 h, read-out: Inhibition of spontaneous colony formation (number of colonies). The procedure: as §1
DLD-1 cells (8.0 × 10^3) were seeded in 6-well plate and treated with the 3, 7–9 (10 µM) in 1 mL of 0.3% Basal Medium Eagle (BME) agar containing 10% FBS, 2 mM L-glutamine, and 25 µg/mL gentamicin. The cultures were maintained at 37 °C in a 5% CO2 incubator for 14 days, and the cell’s colonies were scored using a microscope “Motic AE 20” (Scientific Instrument Company, Campbell, CA, USA) and the Motic Image Plus computer program (Scientific Instrument Company, Campbell, CA, USA).

Data set [5] shares this test system. In words: Radioactive irradiation plus compounds, DLD-1 cell proliferation (MTS). The note with it: compounds 2 µM, radiation 4 Gy, 96 h, MTS assay, read-out: Increase of the inhibitory effect from radiation on proliferation. The method, then:
Figure 7 The effect of radioactive irradiation and a combination of radioactive irradiation and the compounds 3, 7–9 on DLD-1 cancer cell proliferation. DLD-1 cells (8.0 × 10^3) were treated with radiation 4 Gy and the compounds 3, 7–9 (2 µM) for 96 h. Cell viability was estimated using the MTS assay. Data are represented as the mean ± SD as determined from triplicate experiments. A Student’s t-test was used to evaluate the data with the following significance levels: * p < 0.05, ** p < 0.01.
DLD-1 cells (8 × 10^3) cells were seeded in 96-well plates in […] of RPMI-1640/10%FBS medium at 37 °C in a 5% CO2 incubator for 24 h. Then the cells were treated with 2 µM of 3, 7–9 for additional 24, 48, 72 or 96 h at 37 °C in a 5% CO2 atmosphere. The reaction was terminated by adding MTS reagent to each well as described in the Section 3.5.5.
Irradiation was delivered at room temperature using single doses of X-ray system XPERT 80 (KUB Technologies, Inc, Milford, CT, USA). The doses were from 4 to 8 Gy for colony formation assay. The absorber dose was measured using X-ray radiation clinical dosimeter DRK-1 (Akselbant, Moscow, Russia).
DLD-1 cells (5.0 × 10^5) were plated at 60 mm dishes and incubated for 24 h. After the incubation, the cells were cultured in the presence or absence of 2 μM 3, 7–9 for additional 24 h before irradiation at the dose of 4 Gy. Immediately after irradiation, cells were returned to the incubator for recovery. Three hour later, the cells were harvested and used for soft agar assay or proliferation assay to establish the synergism of radioactive irradiation and investigated compounds effects on colony formation or proliferation of tested cells.

On to `C=C(C)C(O)CCC(C)(O)C1C2CC3(C)C4=CCC5C(C)(C)C(OC6OCC(OS(=O)(=O)O)C(O)C6OC6OC(C)C(O)C(O)C6O)CCC5(C)C4CCC13C(=O)O2` [Compound 2, 3β-O-[β-D-quinovopyranosyl-(1→2)-4-O-sodium sulfate-β-D-xylopyranosyl]-9βH,20(S),24(S)-dihydroxylanosta-7,25-diene-18(16)-lactone], for which the “Cytotoxic effect against DLD-1 cells (in words)” value in data set [1] (0–100 µM, 24 h) was “did not possessed cytotoxic effect”. In addition, the IC50 in data set [1] is over 100 µM; in data set [2], 94.2 ± 1.18 µM; in data set [3], over 100 µM. Moreover, the “Hemolytic action (in words)” value in the data set on mouse erythrocytes is reported as “moderate hemolytic activity”.

Consider `C=C(C)CCCC(C)(O)C1C2CC3(C)C4=CCC5C(C)(C)C(OC6OCC(OS(=O)(=O)O)C(O)C6OC6OC(C)C(O)C(O)C6O)CCC5(C)C4CCC13C(=O)O2` [Compound 3, 3β-O-[β-D-quinovopyranosyl-(1→2)-4-O-sodium sulfate-β-D-xylopyranosyl]-9βH,20(S)-hydroxylanosta-7,25-diene-18(16)-lactone], for which the “Reduction of colonies size” value in data set [4] worked out at 49%. Further, the inhibition at 10 µM in data set [4] is 22%. Moreover, the IC50 in data set [1] was 30.3 µM; in data set [2] it was 19.2 ± 0.03 µM; in data set [3], 18.95 ± 0.03 µM. For the same compound, in data set [5], the inhibition at 2 µM was over 30%.

In the case of `CC(C)=CCCC(C)(O)C1C2CC3(C)C4=CCC5C(C)(C)C(OC6OCC(OS(=O)(=O)O)C(O)C6OC6OC(C)C(O)C(O)C6O)CCC5(C)C4CCC13C(=O)O2` [Compound 4, 3β-O-[β-D-quinovopyranosyl-(1→2)-4-O-sodium sulfate-β-D-xylopyranosyl]-9βH,20(S)-hydroxylanosta-7,24-diene-18(16)-lactone], the IC50 is over 100 µM in data set [1], 37.6 µM in data set [2] and 28.4 ± 0.42 µM in data set [3].

Turning to `COC1C(O)C(CO)OC(OC2COC(OC3C(C)OC(OC4C(OC5CCC6(C)C7CCC89C(=O)OC(CC8(C)C7=CCC6C5(C)C)C9C(C)(O)CC=CC(C)(C)O)OCC(OS(=O)(=O)O)C4O)C(O)C3O)C(O)C2O)C1O` [Compound 5, 3β-O-[3-O-methyl-β-D-glucopyranosyl-(1→3)-β-D-xylopyranosyl-(1→4)-β-D-quinovopyranosyl-(1→2)-4-O-sodium sulfate-β-D-xylopyranosyl]-9βH,20(S),25-dihydroxylanosta-7,23E-diene-18(16)-lactone], the IC50 in data set [1], in data set [2] and in data set [3] was over 100 µM throughout. For the same compound, the “Hemolytic action (in words)” value in the data set on mouse erythrocytes is given as “moderate hemolytic activity”.

As for `C=C(C)C(O)CCC(C)(O)C1C2CC3(C)C4=CCC5C(C)(C)C(OC6OCC(OS(=O)(=O)O)C(O)C6OC6OC(C)C(OC7OCC(OC8OC(CO)C(O)C(OC)C8O)C(O)C7O)C(O)C6O)CCC5(C)C4CCC13C(=O)O2` [Compound 6, 3β-O-[3-O-methyl-β-D-glucopyranosyl-(1→3)-β-D-xylopyranosyl-(1→4)-β-D-quinovopyranosyl-(1→2)-4-O-sodium sulfate-β-D-xylopyranosyl]-9βH,20(S),24(S)-dihydroxylanosta-7,25-diene-18(16)-lactone], the IC50 in data set [1], in data set [2] and in data set [3] was over 100 µM throughout. Moreover, the “Hemolytic action (in words)” value in the data set on mouse erythrocytes is listed as “moderate hemolytic activity”.

For the compound `COC1C(O)C(COS(=O)(=O)O)OC(OC2COC(OC3C(C)OC(OC4C(OC5CCC6(C)C7CCC89C(=O)OC(CC8(C)C7=CCC6C5(C)C)C9C(C)(O)CC=CC(C)(C)O)OCC(OS(=O)(=O)O)C4O)C(O)C3O)C(O)C2O)C1O` [Compound 7, 3β-O-[6-O-sodium sulfate-3-O-methyl-β-D-glucopyranosyl-(1→3)-β-D-xylopyranosyl-(1→4)-β-D-quinovopyranosyl-(1→2)-4-O-sodium sulfate-β-D-xylopyranosyl]-9βH,20(S),25-dihydroxylanosta-7,23E-diene-18(16)-lactone], in data set [4], the “Reduction of colonies size” value came to 43%. Moreover, in data set [4], the inhibition at 10 µM is 26%. The IC50 was 32.9 µM in data set [1], 8.97 ± 0.04 µM in data set [2] and 18.7 µM in data set [3]. Moreover, the “Hemolytic action (in words)” value in the data set on mouse erythrocytes was “significant effects”.

`C=C(C)C(O)CCC(C)(O)C1C2CC3(C)C4=CCC5C(C)(C)C(OC6OCC(OS(=O)(=O)O)C(O)C6OC6OC(C)C(OC7OCC(OC8OC(COS(=O)(=O)O)C(O)C(OC)C8O)C(O)C7O)C(O)C6O)CCC5(C)C4CCC13C(=O)O2` [Compound 8, 3β-O-[6-O-sodium sulfate-3-O-methyl-β-D-glucopyranosyl-(1→3)-β-D-xylopyranosyl-(1→4)-β-D-quinovopyranosyl-(1→2)-4-O-sodium sulfate-β-D-xylopyranosyl]-9βH,20(S),24(S)-dihydroxylanosta-7,25-diene-18(16)-lactone]: the “Reduction of colonies size” value in data set [4] was “less than 20%”. Also, the inhibition at 10 µM in data set [4] was under 20%. In addition, the IC50 came to 37.1 µM in data set [1], 17.3 ± 0.43 µM in data set [2] and 37.5 µM in data set [3]. Besides, the inhibition at 2 µM in data set [5] is over 30%. Further, the “Hemolytic action (in words)” value in the data set on mouse erythrocytes is listed as “significant effects”.

As for `COC1C(O)C(COS(=O)(=O)O)OC(OC2COC(OC3C(C)OC(OC4C(OC5CCC6(C)C7CCC89C(=O)OC(CC8(C)C7=CCC6C5(C)C)C9C(C)(O)CCC=C(C)C)OCC(OS(=O)(=O)O)C4O)C(O)C3O)C(O)C2O)C1O` [Compound 9, 3β-O-[6-O-sodium sulfate-3-O-methyl-β-D-glucopyranosyl-(1→3)-β-D-xylopyranosyl-(1→4)-β-D-quinovopyranosyl-(1→2)-4-O-sodium sulfate-β-D-xylopyranosyl]-9βH,20(S)-hydroxylanosta-7,24-diene-18(16)-lactone], in data set [4], the “Reduction of colonies size” value is listed as “less than 20%”. Further, the inhibition at 10 µM in data set [4] is under 20%. In addition, the IC50 in data set [1] was determined as 33.9 µM; in data set [2] it was 12.2 ± 0.33 µM; in data set [3] it was 35.06 ± 0.18 µM. Further, the inhibition at 2 µM in data set [5] is 45%.

In turn, Triton X-100 [reference compound] gave a Hemolysis of cells with mouse erythrocytes (concentration 1%, positive control) of 100%.

Usually IC50 stands for the concentration that inhibits the measured activity by half.
